Where two headings read alike, the source gives them in different places.
Experiments:
[1] = target: His6-ERα298-554 Y537S mutant (ERα ligand-binding domain) (Homo sapiens (Human), UniProt P03372, Y537S); assay: Test A: biochemical antagonist activity, LanthaScreen TR-FRET ERα coactivator assay, Y537S mutant; conditions: read-out: Antagonism Y537S IC50
Summary of the method: (§1)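 His6-ERα LBD (0.5 nM) with 0.5 nM Tb-anti-His6 antibody, 250 nM PGC1a peptide and 3 nM (or 10 nM) estradiol in 100 mM potassium phosphate pH 7.4 with 5 mM DTT, incubated overnight at room temperature with compound.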

[2] = system: MCF7 cells expressing mutant estrogen receptor Tyr 537 Ser; assay: Test B: cell proliferation/viability assay (CellTiter-Glo) on MCF7 Tyr 537 Ser mutant; format: cell-based; conditions: Homo sapiens, MCF7, 168 h, MCF7 cells expressing ER Tyr 537 Ser mutant, 7 days of compound exposure, read-out: proliferation MCF7 Y537S IC50
Summary of the method: (§2)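 Mutant lines are MCF7 transfected with ER mutants and selected for estradiol-independent growth. Cells in phenol red-free MEM with 5% charcoal-stripped FBS received 9-point 1:5 dilutions (3-0.000001 μM) for 7 days; CellTiter-Glo luminescence, % viability relative to untreated after background subtraction.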

[3] = system: MCF7 cells expressing mutant estrogen receptor Asp 538 Gly; assay: Test B: cell proliferation/viability assay (CellTiter-Glo) on MCF7 Asp 538 Gly mutant; format: cell-based; conditions: Homo sapiens, MCF7, 168 h, MCF7 cells expressing ER Asp 538 Gly mutant, 7 days of compound exposure, read-out: proliferation MCF7 D538G IC50
Summary of the method: as §2

[4] = system: MCF7 cells (breast tumor cells) WT; assay: Test B: cell proliferation/viability assay (CellTiter-Glo) on MCF7 WT; format: cell-based; conditions: 7 days of compound exposure
Summary of the method: as §2

[5] = target: His6-ERα298-554 WT (ERα ligand-binding domain) (Homo sapiens (Human), UniProt P03372); assay: Test A: biochemical antagonist activity, LanthaScreen TR-FRET ERα coactivator assay, WT; conditions: read-out: Antagonism WT IC50
Summary of the method: as §1

[6] = target: His6-ERα298-554 D538G mutant (ERα ligand-binding domain) (Homo sapiens (Human), UniProt P03372, D538G); assay: Test A: biochemical antagonist activity, LanthaScreen TR-FRET ERα coactivator assay, D538G mutant; conditions: read-out: Antagonism D538G IC50
Summary of the method: as §1

ERα in MCF7 cells = ERα in MCF7 cells (Homo sapiens (Human), UniProt P03372); assay: Test C: estrogen receptor degradation activity, ERα in cell western assay in MCF7 cells; format: cell-based; conditions: for DC50: 4 hours post compound addition, ERα in cell western, read-out: Degradation IC50; for % Degradation at 3 μM: 4 hours, relative to fulvestrant
Summary of the method: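 MCF7 cells in phenol-red-free medium with 5% charcoal-stripped FBS received compound (9-point 1:5, 3-0.000018 μM) for 4 h, then were fixed. ERα immunostained (Alexa 488) and normalised to DNA (Syto-64), read as integrated fluorescence on an Acumen scanner.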

[7] = asterisk (*): protocol using 10 nM estradiol

Chain of His6-ERα298-554 D538G mutant (ERα ligand-binding domain) (P03372 298-554 D538G): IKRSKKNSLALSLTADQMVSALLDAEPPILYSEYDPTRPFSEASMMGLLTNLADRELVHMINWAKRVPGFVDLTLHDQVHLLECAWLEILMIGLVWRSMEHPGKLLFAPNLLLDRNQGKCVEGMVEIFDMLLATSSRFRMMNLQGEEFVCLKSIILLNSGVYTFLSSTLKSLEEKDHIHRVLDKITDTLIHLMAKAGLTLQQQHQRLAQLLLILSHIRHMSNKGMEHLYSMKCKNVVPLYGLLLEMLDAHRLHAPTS
Chain of His6-ERα298-554 WT (ERα ligand-binding domain) (P03372 298-554): as the sequence (P03372 298-554 D538G) above, with G241D counted along it
Chain of His6-ERα298-554 Y537S mutant (ERα ligand-binding domain) (P03372 298-554 Y537S): as the sequence (P03372 298-554 D538G) above, with Y240S, G241D counted along it
Chain of ERα in MCF7 cells (P03372 whole entry): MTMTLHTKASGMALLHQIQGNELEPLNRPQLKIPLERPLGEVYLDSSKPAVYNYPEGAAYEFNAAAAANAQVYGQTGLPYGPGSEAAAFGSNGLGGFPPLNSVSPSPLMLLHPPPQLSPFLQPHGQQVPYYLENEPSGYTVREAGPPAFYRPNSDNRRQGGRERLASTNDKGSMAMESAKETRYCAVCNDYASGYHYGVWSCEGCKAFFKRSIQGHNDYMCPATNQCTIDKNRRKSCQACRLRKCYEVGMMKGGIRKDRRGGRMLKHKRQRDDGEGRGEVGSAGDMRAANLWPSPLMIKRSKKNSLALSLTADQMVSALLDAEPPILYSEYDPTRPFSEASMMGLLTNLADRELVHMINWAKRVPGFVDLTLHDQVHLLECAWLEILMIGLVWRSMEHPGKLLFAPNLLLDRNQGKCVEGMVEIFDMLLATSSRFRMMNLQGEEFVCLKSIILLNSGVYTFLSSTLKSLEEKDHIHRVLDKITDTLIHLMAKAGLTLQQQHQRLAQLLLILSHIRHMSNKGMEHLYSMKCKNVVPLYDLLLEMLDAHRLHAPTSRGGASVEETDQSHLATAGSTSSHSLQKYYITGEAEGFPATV

SMILES	IC50 [1, 7]	IC50 [2]	IC50 [3]	IC50 ([4]; Homo sapiens, MCF7, 168 h)	IC50 [5, 7]	IC50 [6, 7]	DC50 (ERα in MCF7 cells)	% Degradation at 3 μM (ERα in MCF7 cells)	IC50 ([1]; protocol with 3 nM estradiol)	IC50 ([5]; protocol with 3 nM estradiol)	IC50 ([6]; protocol with 3 nM estradiol)	IC50 [4]
Oc1ccc2c(c1)CCCC(c1ccc(OC(F)F)c(F)c1)=C2c1ccc(O[C@H]2CCN(CCCF)C2)nc1 [Example 241, 6-[4-(difluoromethoxy)-3-fluoro-phenyl]-5-[6-[(3S)-1-(3-fluoropropyl)pyrrolidin-3-yl]oxy-3-pyridyl]-8,9-dihydro-7H-benzo[7]annulen-2-ol]	16 nM	2 nM	0.2 nM	0.1 nM	1 nM	27 nM	0.2 nM	85%				
CCOc1ccc(C2=C(c3ccc(O[C@H]4CCN(CCCF)C4)cc3)c3ccc(O)cc3SC2)c(C)c1 [Example 39, 3-(4-ethoxy-2-methyl-phenyl)-4-[4-[(3S)-1-(3-fluoropropyl)pyrrolidin-3-yl]oxyphenyl]-2H-thiochromen-7-ol]	127 nM	2 nM	0.5 nM	0.4 nM	9 nM	221 nM	0.7 nM	86%				
C[C@@H]1Cc2cc(C3=C(c4ccc(O[C@H]5CCN(CCCF)C5)cc4)c4ccc(O)cc4SCC3)ccc2O1 [Example 202, 5-[4-[(3S)-1-(3-fluoropropyl)pyrrolidin-3-yl]oxyphenyl]-4-[(2R)-2-methyl-2,3-dihydrobenzofuran-5-yl]-2,3-dihydro-1-benzothiepin-8-ol]	11 nM	6 nM	1 nM	0.4 nM	1 nM	15 nM	0.5 nM	89%				
Cc1ccc(C2=C(c3ccc(O[C@H]4CCN(CCCF)C4)cc3)c3ccc(O)cc3OCC2)c(F)c1 [Example 96, 4-(2-fluoro-4-methyl-phenyl)-5-[4-[(3S)-1-(3-fluoropropyl)pyrrolidin-3-yl]oxyphenyl]-2,3-dihydro-1-benzoxepin-8-ol]		16 nM	5 nM	2 nM			0.6 nM	91%	19 nM	7 nM	47 nM	
Oc1ccc2c(c1)SCCC(c1ccc(OCF)cc1)=C2c1ccc(O[C@H]2CCN(CCCF)C2)cc1 [Example 218, 4-[4-(fluoromethoxy)phenyl]-5-[4-[(3S)-1-(3-fluoropropyl)pyrrolidin-3-yl]oxyphenyl]-2,3-dihydro-1-benzothiepin-8-ol]	22 nM	1 nM	0.1 nM	0.1 nM	1 nM	25 nM	0.2 nM	78%				
Cc1ccc(C2=C(c3ccc(O[C@H]4CCN(CCCF)C4)cc3)c3ccc(O)cc3[S+]([O-])C2)c(F)c1 (single isomer, unassigned) [Example 70]	> 4000 nM	478 nM	97 nM		1660 nM	> 4000 nM	25 nM	73%				64 nM
CCOc1ccc(C2=C(c3ccc(O[C@H]4CCN(CCCF)C4)cc3)c3ccc(O)cc3SC2)c(F)c1F [Example 41, 3-(4-ethoxy-2,3-difluoro-phenyl)-4-[4-[(3S)-1-(3-fluoropropyl)pyrrolidin-3-yl]oxyphenyl]-2H-thiochromen-7-ol]	407 nM	4 nM	1 nM	0.9 nM	27 nM	740 nM	1 nM	85%				
Oc1ccc2c(c1)SCCC(c1ccc3c(c1)OC(F)(F)O3)=C2c1ccc(O[C@H]2CCN(CCCF)C2)cc1 [Example 193, 4-(2,2-difluoro-1,3-benzodioxol-5-yl)-5-[4-[(3S)-1-(3-fluoropropyl)pyrrolidin-3-yl]oxyphenyl]-2,3-dihydro-1-benzothiepin-8-ol]	20 nM	5 nM	0.5 nM	0.3 nM	1 nM	25 nM	0.2 nM	91%				
CC(C)(O)c1ccc(C2=C(c3ccc(O[C@H]4CCN(CCCF)C4)cc3)c3ccc(O)cc3SC2)c(F)c1 [Example 33, 3-[2-fluoro-4-(1-hydroxy-1-methyl-ethyl)phenyl]-4-[4-[(3S)-1-(3-fluoropropyl)pyrrolidin-3-yl]oxyphenyl]-2H-thiochromen-7-ol]	596 nM	22 nM	2 nM	4 nM	66 nM	1690 nM	1 nM	84%				
CCOc1ccc(C2=C(c3ccc(O[C@H]4CCN(CCCF)C4)cc3)c3ccc(O)cc3SCC2)cc1F [Example 185, 4-(4-ethoxy-3-fluoro-phenyl)-5-[4-[(3S)-1-(3-fluoropropyl)pyrrolidin-3-yl]oxyphenyl]-2,3-dihydro-1-benzothiepin-8-ol]		6 nM	1 nM	0.4 nM			0.7 nM	84%	65 nM	2.9 nM	104 nM	
CCOc1ccc(C2=C(c3ccc(O[C@H]4CCN(CCCF)C4)cc3)c3ccc(O)cc3SC2)c(F)c1 [Example 26, 3-(4-ethoxy-2-fluoro-phenyl)-4-[4-[(3S)-1-(3-fluoropropyl)pyrrolidin-3-yl]oxyphenyl]-2H-thiochromen-7-ol]		10 nM	2 nM	0.9 nM			0.8 nM	90%	39 nM	3 nM	67 nM	
Oc1ccc2c(c1)SCC(c1ccc3ncccc3c1)=C2c1ccc(O[C@H]2CCN(CCCF)C2)cc1 [Example 67, 4-[4-[(3S)-1-(3-fluoropropyl)pyrrolidin-3-yl]oxyphenyl]-3-(6-quinolyl)-2H-thiochromen-7-ol]	1280 nM	86 nM	16 nM	12 nM	120 nM	1810 nM	1 nM	90%				
Oc1ccc2c(c1)SCC(c1ccc(Cl)cc1F)=C2c1ccc(O[C@H]2CCN(CCCF)C2)cc1 [Example 18, 3-(4-chloro-2-fluoro-phenyl)-4-[4-[(3S)-1-(3-fluoropropyl)pyrrolidin-3-yl]oxyphenyl]-2H-thiochromen-7-ol]		7 nM	1 nM	0.5 nM			0.6 nM	90%	15 nM	9 nM	39 nM	
Oc1ccc2c(c1)SCC(c1ccc(C(F)F)cc1F)=C2c1ccc(O[C@H]2CCN(CCCF)C2)cc1 [Example 62, 3-[4-(difluoromethyl)-2-fluoro-phenyl]-4-[4-[(3S)-1-(3-fluoropropyl)pyrrolidin-3-yl]oxyphenyl]-2H-thiochromen-7-ol]	271 nM	6 nM	0.2 nM	0.4 nM	27 nM	523 nM	0.2 nM	80%				
Oc1ccc2c(c1)SCC(c1ccc3c(c1)OC(F)(F)O3)=C2c1ccc(O[C@H]2CCN(CCCF)C2)cc1 [Example 31, 3-(2,2-difluoro-1,3-benzodioxol-5-yl)-4-[4-[(3S)-1-(3-fluoropropyl)pyrrolidin-3-yl]oxyphenyl]-2H-thiochromen-7-ol]		6 nM	1 nM	0.4 nM			0.7 nM	86%	59 nM	5 nM	101 nM	
CC1(C)Cc2cc(C3=C(c4ccc(O[C@H]5CCN(CCCF)C5)cc4)c4ccc(O)cc4SC3)ccc2O1 [Example 32, 3-(2,2-dimethyl-3H-benzofuran-5-yl)-4-[4-[(3S)-1-(3-fluoropropyl)pyrrolidin-3-yl]oxyphenyl]-2H-thiochromen-7-ol]	168 nM	6 nM	1 nM	0.4 nM	19 nM	314 nM	0.8 nM	87%				

From patent US11149031B2, “Substituted N-(3-fluoropropyl)-pyrrolidine compounds, processes for their preparation and therapeutic uses thereof” (SANOFI, priority 2016, dated 2021)
